{"source": "patent US8222432B2", "about": "(BioLink Life Sciences, Inc., priority 2008, dated 2012)", "key": {"[1]": {"tested_on": "glucose transporters (GLUT 1 and GLUT 4)", "details": "cited from earlier work"}, "pyruvate dehydrogenase": {"tested_on": "pyruvate dehydrogenase", "details": "cited from earlier work"}, "glucose assimilation": {"tested_on": "glucose assimilation", "details": "comparable to the effect of 200 nM insulin; cited from earlier work"}, "[2]": {"details": "closed and sealed amber container, cited from earlier work"}, "[3]": {"experiment": "Storage stability of magnesium R-(+)-α-lipoate at room temperature / ambient humidity", "text": "Test samples of magnesium R-(+)-α-lipoate were stored at ambient temperatures for two years."}, "diabetic neuropathy": {"tested_on": "diabetic neuropathy", "details": ">600 mg/day; cited from earlier work"}, "nerve function": {"tested_on": "nerve function", "details": "600 or 1200 mg daily, 24 months; cited from earlier work"}, "[4]": {"tested_on": "neuropathy impairment score", "details": "600 mg daily for 6 months, 509 patients; cited from earlier work"}, "diabetic polyneuropathy": {"tested_on": "diabetic polyneuropathy", "details": "3-week period; cited from earlier work"}, "[5]": {"tested_on": "neuropathic symptoms and deficits", "details": "600 mg/day over a 3-week period; cited from earlier work"}, "[6]": {"tested_on": "cardiac autonomic neuropathy", "details": "800 mg daily, 4 months, diabetic patients with cardiac autonomic neuropathy; cited from earlier work"}, "[7]": {"details": "ambient temperatures, two years"}}, "note": "Like-named read-outs stand apart in the source and are kept apart here.", "data": [{"molecule": "O=C(O)CCCCC1CCSS1", "note": "(stereo not drawn) [R-(+)-α-lipoic acid]", "values": [{"measurement": "translocation of GLUT 1 and GLUT 4 from the cytosol to the plasma membrane", "setting": "[1]", "value": "stimulated"}, {"measurement": "activity of pyruvate dehydrogenase", "setting": "pyruvate dehydrogenase", "value": "increased"}, {"measurement": "stimulation of glucose assimilation (factor)", "setting": "glucose assimilation", "value": "greater than 2"}, {"measurement": "storage stability", "setting": "[2]; refrigerated temperatures", "value": "must be used within a few months"}, {"measurement": "visible signs of polymerization or degradation", "setting": "[3]; [7]", "value": "clumping of the compound, development of a strong sulfur odor, and formation of small and visible gummy balls of dark yellow material"}]}, {"molecule": "O=C(O)CCCC[C@@H]1CCSS1", "note": "[magnesium R-(+)-α-lipoate, magnesium R-(+)-alpha-lipoate]", "values": [{"measurement": "hygroscopicity", "setting": "[3]; ambient environments, relative humidities as high as 75%", "value": "not hygroscopic"}, {"measurement": "chemical composition, purity and chiral purity on storage", "setting": "[3]; [7]", "value": "did not change during storage under these conditions"}, {"measurement": "physical state / appearance and properties on storage", "setting": "[3]; [7]", "value": "did not change over time"}, {"measurement": "visible signs of polymerization or degradation", "setting": "[3]; [7]", "value": "no visible signs of polymerization or degradation"}, {"measurement": "physical appearance and properties on storage", "setting": "[3]; room temperature, relative humidities as high as 75%, one week", "value": "did not change during storage"}]}, {"molecule": "O=C(O)CCCCC1CCSS1", "note": "(stereo not drawn) [α-lipoic acid, 1,2-dithiocyclopentane-3-valeric acid]", "values": [{"measurement": "storage stability", "setting": "[2]; room temperature", "value": "a year or longer"}, {"measurement": "patient symptoms", "setting": "diabetic neuropathy", "value": "significantly improved patient symptoms"}, {"measurement": "nerve function", "setting": "nerve function", "value": "improved nerve function"}, {"measurement": "neuropathy impairment score", "setting": "[4]", "value": "improved neuropathy impairment score as early as 19 days"}, {"measurement": "sensory symptoms (Total Symptom Score)", "setting": "diabetic polyneuropathy", "value": "improved sensory symptoms"}, {"measurement": "positive neuropathic symptoms and neuropathic deficits; safety", "setting": "[5]", "value": "safe and effective"}, {"measurement": "heart rate variability", "setting": "[6]", "value": "significantly improved"}]}, {"molecule": "S-(−)-α-lipoic acid [S-(−)-α-lipoate]", "values": [{"measurement": "total content of glucose transporters", "setting": "[1]", "value": "appeared to lower"}, {"measurement": "translocation of GLUT 1 and GLUT 4 from the cytosol to the plasma membrane", "setting": "[1]", "value": "had no effect or has an inhibiting effect"}, {"measurement": "activity of pyruvate dehydrogenase", "setting": "pyruvate dehydrogenase", "value": "inhibited"}, {"measurement": "stimulation of glucose assimilation (factor)", "setting": "glucose assimilation", "value": "little or no change"}]}]}
